Experimental data: US8399465B2, “Compounds with two fused bicyclic heteroaryl moieties as modulators of leukotriene A4 hydrolase” (Janssen Pharmaceutica NV, priority 2009, dated 2013)
Structures can show the parent of a compound that is named as a salt. Values belong to the molecule of their own block, whether it stands above or below them.

Assays:
[1] = biological target: T1, recombinant human LTA4 hydrolase (rhLTA4H) (Homo sapiens, UniProt P09960); assay: Recombinant human LTA4 hydrolase assay for LTA4 hydrolase inhibitor activity; format: biochemical; conditions: rhLTA4H, LTB4 by immunoassay; single determination or average of two or more; mark after value = form tested: ′ free base, ″ hydrochloride, ^ formate; read-out: IC50
T1 construct: made in house; host or cells: Spodoptera frugiperda (Sf-9) cells, baculovirus (pFastBac1)
T1 sequence (P09960 1-611): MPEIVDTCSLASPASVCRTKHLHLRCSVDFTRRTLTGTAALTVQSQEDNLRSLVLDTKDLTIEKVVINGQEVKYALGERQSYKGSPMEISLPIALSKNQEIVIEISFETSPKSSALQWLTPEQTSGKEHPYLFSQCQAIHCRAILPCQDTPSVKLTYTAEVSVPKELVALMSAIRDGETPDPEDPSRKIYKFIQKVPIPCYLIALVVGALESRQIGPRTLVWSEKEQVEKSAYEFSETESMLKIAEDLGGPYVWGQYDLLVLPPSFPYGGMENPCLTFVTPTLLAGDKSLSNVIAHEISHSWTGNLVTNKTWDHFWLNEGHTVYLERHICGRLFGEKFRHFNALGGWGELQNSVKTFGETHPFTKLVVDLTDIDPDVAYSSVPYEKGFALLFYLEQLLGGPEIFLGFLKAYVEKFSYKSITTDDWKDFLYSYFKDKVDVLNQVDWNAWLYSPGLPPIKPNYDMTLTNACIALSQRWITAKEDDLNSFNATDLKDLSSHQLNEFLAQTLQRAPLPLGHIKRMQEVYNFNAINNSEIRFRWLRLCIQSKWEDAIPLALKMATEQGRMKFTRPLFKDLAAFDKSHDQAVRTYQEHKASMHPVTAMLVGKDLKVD
Procedure, shortened: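 Baculovirus/Sf-9-expressed human LTA4H (10 ng) was preincubated 10 min at rt with compound in assay buffer (10% DMSO in compound dilution), then reacted 30 min at rt with LTA4 free acid made from its methyl ester. LTB4 produced was measured by ELISA after dilution; IC50 from non-linear regression, single or averaged determinations.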

[2] = system: LTB4 production in murine blood (LTA4H); assay: LTB4 production by calcium ionophore-stimulated murine blood for LTA4H inhibitor activity; format: cell-based, CD-1 mice; conditions: Mus musculus; murine blood diluted 1 in 15, A23187 stimulated; single determination or average; mark after value = form tested: ′ free base, ″ hydrochloride, ^ formate; read-out: IC50
Procedure, shortened: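 Heparinized blood from CD-1 mice was preincubated with compound for 15 min at 37° C, then stimulated with calcium ionophore A23187 (final 7 μg/mL) for 30 min. Centrifugation stopped the reaction, and LTB4 in the supernatant was measured by enzyme immunoassay. Values are single determinations or means of two or more.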

[3] = system: arachidonic acid-induced neutrophil influx in murine ear tissue; assay: Murine arachidonic acid-induced inflammation model: neutrophil influx (myeloperoxidase) in ear; format: in vivo, Balb/c mice; conditions: Mus musculus; 30 mg/kg oral gavage, 60 min before topical arachidonic acid, ear biopsy after 3 h; percent inhibition of neutrophil influx; read-out: % Inh. MPO
Procedure: (§1) Assay 3: Murine Arachidonic Acid-Induced Inflammation Model
(§2) LTA4H inhibitor compounds of the present invention were dissolved in 20% cyclodextran/H2O at a concentration of 3 mg/mL. The solutions were administered by oral gavage to female Balb/c mice weighing approximately 20 grams each (0.2 mL per mouse, 30 mg of LTA4H inhibitor compound per kg). Sixty minutes after being administered an LTA4 inhibitor, each mouse received topical application of 20 μL of arachidonic acid (100 mg/mL in acetone) to the left ear and 20 μL of acetone only to the right ear. After 3 h, the mice were sacrificed, blood was withdrawn in heparinized syringes, and 8 mm ear biopsies were taken. Ear biopsies were weighed to determine edema and then frozen at −80° C. until needed for determination of neutrophil influx.
Neutrophil influx was quantified by measuring the activity of myeloperoxidase (MPO), a neutrophil-specific enzyme. […] Debris was removed by centrifugation at 14000×g for 10 min. […] The microtiter plate contents were held at room temperature until the sample with the highest concentration of MPO reached an absorbance value of 0.4 at 650 nm. The reaction was stopped by addition of 50 μL 1 M H2SO4 to each sample well, and the myeloperoxidase activity in each sample was determined from the absorbance at […]. The background value from the right ear, treated only with acetone, was subtracted from that for the left ear, treated with arachidonic acid in acetone, for each animal. The percent inhibition of neutrophil influx (% Inh. MPO) by compounds of the invention was determined by comparison to animals treated identically, except that the solution administered by oral gavage was devoid of inhibitor compound. All compounds were assayed in their free base form.

[4] = system: ex vivo calcium ionophore-stimulated LTB4 production in whole blood; assay: Murine arachidonic acid-induced inflammation model: ex vivo stimulated LTB4 production in blood; set-up: species or system Balb/c mice; conditions: Mus musculus; 30 mg/kg oral gavage; blood diluted 1:1, A23187 stimulated ex vivo; percent inhibition of LTB4 production; read-out: % Inh. LTB4
Procedure: as §1, §2
The microtiter plate contents were incubated for 30 min at 37° C. in a humidified incubator. The reaction was terminated by centrifugation (833×g, 10 min at 4° C.). Supernatants were analyzed for LTB4 by a commercially available enzyme-linked immunoassay (Cayman Chemical Co.) in accordance with the manufacturer's instructions. The percent inhibition of ex vivo stimulated LTB4 production (% Inh. LTB4) was determined by comparison to animals treated identically except that the solution administered by oral gavage was devoid of inhibitor compound.

SMILES: O=C(O)C1CCN(Cc2cc3cc(Oc4nc5ccccc5s4)ccc3o2)CC1 [Example 76, 1-[5-(Benzothiazol-2-yloxy)-benzofuran-2-ylmethyl]-piperidine-4-carboxylic acid]
IC50 [1]: 28 nM | IC50 [2]: 48 nM | inhibition at 30 mg/kg [3]: 89% | inhibition at 30 mg/kg [4]: 85%

SMILES: O=C(O)C1CCN(Cc2cc3ccc(Oc4nc5ccccc5s4)cc3o2)CC1 [Example 77, 1-[6-(Benzothiazol-2-yloxy)-benzofuran-2-ylmethyl]-piperidine-4-carboxylic acid]
IC50 [1]: 35 nM | IC50 [2]: 30 nM | inhibition at 30 mg/kg [3]: 77% | inhibition at 30 mg/kg [4]: 85%

SMILES: CC(=O)N1C[C@H]2CC[C@@H](C1)N2Cc1cc2cc(Oc3nc4ncccc4s3)ccc2o1 [Example 93, meso-1-{8-[5-(Thiazolo[4,5-b]pyridin-2-yloxy)-benzofuran-2-ylmethyl]-3,8-diaza-bicyclo[3.2.1]oct-3-yl}-ethanone]
IC50 [1]: 3 nM | IC50 [2]: 23 nM | inhibition at 30 mg/kg [3]: 87% | inhibition at 30 mg/kg [4]: 85%

SMILES: CC(=O)N1C[C@@H]2C[C@H]1CN2Cc1cc2cc(Oc3nc4ncccc4s3)ccc2o1 [Example 95, (1S,4S)-1-{5-[5-(Thiazolo[4,5-b]pyridin-2-yloxy)-benzofuran-2-ylmethyl]-2,5-diaza-bicyclo[2.2.1]hept-2-yl}-ethanone]
IC50 [1]: 5 nM | IC50 [2]: 26 nM | inhibition at 30 mg/kg [3]: 79% | inhibition at 30 mg/kg [4]: 80%

SMILES: O=C(c1coc2cc(Oc3nc4ncccc4s3)ccc12)N1CCC(C(=O)N2CCCCC2)CC1 [Example 384, [4-(Piperidine-1-carbonyl)-piperidin-1-yl]-[6-(thiazolo[4,5-b]pyridin-2-yloxy)-benzofuran-3-yl]-methanone]
IC50 [1]: 12 nM | IC50 [2]: 120 nM

SMILES: Cc1cc(CC(=O)NCc2coc3cc(Oc4nc5ncccc5s4)ccc23)on1 [Example 391, 2-(3-Methyl-isoxazol-5-yl)-N-[6-(thiazolo[4,5-b]pyridin-2-yloxy)-benzofuran-3-ylmethyl]-acetamide]
IC50 [1]: 74 nM | IC50 [2]: 560 nM

SMILES: O=C1CCc2ccccc2N1Cc1coc2cc(Oc3nc4ncccc4s3)ccc12 [Example 397, 1-[6-(Thiazolo[4,5-b]pyridin-2-yloxy)-benzofuran-3-ylmethyl]-3,4-dihydro-1H-quinolin-2-one]
IC50 [1]: 16 nM | IC50 [2]: 820 nM

SMILES: O=C1Cc2ccccc2N1Cc1coc2cc(Oc3nc4ncccc4s3)ccc12 [Example 399, 1-[6-(Thiazolo[4,5-b]pyridin-2-yloxy)-benzofuran-3-ylmethyl]-1,3-dihydro-indol-2-one]
IC50 [1]: 13 nM | IC50 [2]: 300 nM

SMILES: O=C1Cc2ccc(Cl)cc2N1Cc1coc2cc(Oc3nc4ncccc4s3)ccc12 [Example 402, 6-Chloro-1-[6-(thiazolo[4,5-b]pyridin-2-yloxy)-benzofuran-3-ylmethyl]-1,3-dihydro-indol-2-one]
IC50 [1]: 32 nM | IC50 [2]: 400 nM

SMILES: O=C1Cc2cc(F)ccc2N1Cc1coc2cc(Oc3nc4ncccc4s3)ccc12 [Example 403, 5-Fluoro-1-[6-(thiazolo[4,5-b]pyridin-2-yloxy)-benzofuran-3-ylmethyl]-1,3-dihydro-indol-2-one]
IC50 [1]: 47 nM | IC50 [2]: 690 nM

SMILES: NC(=O)N1C[C@@H]2C[C@H]1CN2 [Inter. 17, (1S,4S)-2,5-Diaza-bicyclo[2.2.1]heptane-2-carboxylic acid amide hydrochloride]
IC50 [1]: 37 nM | IC50 [2]: 1000 nM

Further lines, with some results ahead:

IC50 [1]: 3 nM | IC50 [2]: 28 nM
SMILES: NC(=O)C1CCCN(Cc2coc3cc(Oc4nc5ncccc5s4)ccc23)C1 (stereo in doubt) [Example 216, (3S)-1-[6-(Thiazolo[4,5-b]pyridin-2-yloxy)-benzofuran-3-ylmethyl]-piperidine-3-carboxylic acid amide]
inhibition at 30 mg/kg [3]: 87% | inhibition at 30 mg/kg [4]: 87%

IC50 [1]: 4 nM | IC50 [2]: 34 nM
SMILES: C[C@H]1COCCN1Cc1c[nH]c2cc(Oc3nc4ncccc4s3)ccc12 [Example 41, (3S)-2-[3-(3-Methyl-morpholin-4-ylmethyl)-1H-indol-6-yloxy]-thiazolo[4,5-b]pyridine]
inhibition at 30 mg/kg [3]: 62% | inhibition at 30 mg/kg [4]: 65%

IC50 [1]: 81 nM | IC50 [2]: 290 nM
SMILES: c1cnc2sc(Oc3ccc4c(CN5CCOCC5)c[nH]c4c3)nc2n1 [Example 56, 2-(3-Morpholin-4-ylmethyl-1H-indol-6-yloxy)-thiazolo[4,5-b]pyrazine]
inhibition at 30 mg/kg [3]: 45% | inhibition at 30 mg/kg [4]: 40%

IC50 [1]: 10 nM | IC50 [2]: 250 nM
SMILES: Fc1cnc2nc(Oc3ccc4c(CN5CCOCC5)c[nH]c4c3)sc2c1 [Example 58, 6-Fluoro-2-(3-morpholin-4-ylmethyl-1H-indol-6-yloxy)-thiazolo[4,5-b]pyridine]
inhibition at 30 mg/kg [3]: 57% | inhibition at 30 mg/kg [4]: 84%

IC50 [1]: 35 nM | IC50 [2]: 22 nM
SMILES: CC(=O)N1CC2CN(Cc3cc4cc(Oc5nc6ncccc6s5)ccc4o3)CC2C1 (centres unmarked) [Example 90, 1-{5-[5-(Thiazolo[4,5-b]pyridin-2-yloxy)-benzofuran-2-ylmethyl]-hexahydro-pyrrolo[3,4-c]pyrrol-2-yl}-ethanone]
inhibition at 30 mg/kg [3]: 50% | inhibition at 30 mg/kg [4]: 61%

IC50 [1]: 140 nM | IC50 [2]: 110 nM
SMILES: O=C1CCCN1C1CCN(Cc2cc3cc(Oc4nc5ncccc5s4)ccc3o2)CC1 [Example 96, 1-{1-[5-(Thiazolo[4,5-b]pyridin-2-yloxy)-benzofuran-2-ylmethyl]-piperidin-4-yl}-pyrrolidin-2-one]
inhibition at 30 mg/kg [3]: 53% | inhibition at 30 mg/kg [4]: 66%

IC50 [1]: 10 nM | IC50 [2]: 60 nM
SMILES: O=C(c1coc2cc(Oc3nc4ncccc4s3)ccc12)N1CCC(Oc2ncccn2)CC1 [Example 382, [4-(Pyrimidin-2-yloxy)-piperidin-1-yl]-[6-(thiazolo[4,5-b]pyridin-2-yloxy)-benzofuran-3-yl]-methanone]

IC50 [1]: 50 nM | IC50 [2]: 200 nM
SMILES: O=C(c1coc2cc(Oc3nc4ncccc4s3)ccc12)N1CCCCC1 [Example 383, Piperidin-1-yl-[6-(thiazolo[4,5-b]pyridin-2-yloxy)-benzofuran-3-yl]-methanone]

IC50 [1]: 27 nM | IC50 [2]: 270 nM
SMILES: CC(=O)N1CCN(CC(=O)NCc2coc3cc(Oc4nc5ncccc5s4)ccc23)CC1 [Example 390, 2-(4-Acetyl-piperazin-1-yl)-N-[6-(thiazolo[4,5-b]pyridin-2-yloxy)-benzofuran-3-ylmethyl]-acetamide]

IC50 [1]: 29 nM | IC50 [2]: 290 nM
SMILES: O=C(NCc1coc2cc(Oc3nc4ncccc4s3)ccc12)C1CCC(O)CC1 (centres unmarked) [Example 392, 4-Hydroxy-cyclohexanecarboxylic acid [6-(thiazolo[4,5-b]pyridin-2-yloxy)-benzofuran-3-ylmethyl]-amide]
